This assay addresses T1, human NaV1.8 (Homo sapiens, UniProt Q9Y5Y9).
T1 construct: expressed in transfected cells
In words: Nav1.8 Qube® Assay (automated 384-well patch-clamp, inhibition of sodium current). The assay is classed as cell-based. The conditions noted are these: human NaV1.8 channels stably expressed in HEK 293 cells, room temperature. The procedure:
Compounds were tested on human NaV1.8 and NaV1.5 channels stably expressed in human embryo kidney (HEK) 293 cells. Sodium current measurements on Qube® were conducted as follows: automated 384-well patch-clamp assays on the Qube® platform (Sophion Biosciences) were used to measure the inhibition of sodium flow through human NaV1.8 and NaV1.5 channels. Whole-cell voltage-clamp recordings were performed in QChips® (Sophion Biosciences) at room temperature. NaV1.8 current measurements on Qube® were obtained as follows: NaV1.8 currents were elicited with a 10 second 1 Hertz (Hz) pulse train from a holding potential of −90 millivolts (mV), delivered to the cells once per minute in the control condition (DMSO only) and after compound addition. The 1 hertz pulse train stimulation consisted of ten test pulses to 10 millivolt (mV) for 20 milliseconds (ms), each of which was followed by a 980 millisecond repolarization to −67 millivolts. At the end of the 10 second pulse train stimulation, a 5 second hyperpolarization step to −100 millivolt (mV) was used to recover NaV1.8 from fast inactivation. The peak currents elicited by the 1st and 10th test pulses were used to determine IC50 values for resting inhibition and inactivated state inhibition. NaV1.5 current measurements on Qube® were obtained as follows: NaV1.5 currents were elicited with a 20 second 3 Hertz pulse train in the control condition (DMSO only) and after compound addition. The pulse train consisted of sixty 20 millisecond test pulses to 0 millivolt from a holding potential of −80 millivolt (mV). The average peak currents elicited by the last 3 test pulses were used to determine IC50 values for NaV1.5 inhibition.
The following buffers were used for the Qube® recordings: External buffer for NaV1.8 Qube® recording: 150 NaCl, 2 CaCl2, 5 KCl, 1 Mg Cl2, 10 HEPES, 12 Dextrose; External buffer for Qube® NaV1.5 recording: 120 N-Methyl-D-Glucamine, 40 NaCl, 1 KCl, 2.7 CaCl2, 5 HEPES, 0.5 MgCl2; and Internal buffer for Qube® recording: 120 CsF, 30 CsCl, 10 EGTA, 5 HEPES, 5 NaF, 2 MgCl2.
For all Qube® experiments offline analysis was used to determine percent inhibition as a function of drug concentration. IC50 values were determined by fitting to the Hill equation.
T1 sequence (Q9Y5Y9 whole entry): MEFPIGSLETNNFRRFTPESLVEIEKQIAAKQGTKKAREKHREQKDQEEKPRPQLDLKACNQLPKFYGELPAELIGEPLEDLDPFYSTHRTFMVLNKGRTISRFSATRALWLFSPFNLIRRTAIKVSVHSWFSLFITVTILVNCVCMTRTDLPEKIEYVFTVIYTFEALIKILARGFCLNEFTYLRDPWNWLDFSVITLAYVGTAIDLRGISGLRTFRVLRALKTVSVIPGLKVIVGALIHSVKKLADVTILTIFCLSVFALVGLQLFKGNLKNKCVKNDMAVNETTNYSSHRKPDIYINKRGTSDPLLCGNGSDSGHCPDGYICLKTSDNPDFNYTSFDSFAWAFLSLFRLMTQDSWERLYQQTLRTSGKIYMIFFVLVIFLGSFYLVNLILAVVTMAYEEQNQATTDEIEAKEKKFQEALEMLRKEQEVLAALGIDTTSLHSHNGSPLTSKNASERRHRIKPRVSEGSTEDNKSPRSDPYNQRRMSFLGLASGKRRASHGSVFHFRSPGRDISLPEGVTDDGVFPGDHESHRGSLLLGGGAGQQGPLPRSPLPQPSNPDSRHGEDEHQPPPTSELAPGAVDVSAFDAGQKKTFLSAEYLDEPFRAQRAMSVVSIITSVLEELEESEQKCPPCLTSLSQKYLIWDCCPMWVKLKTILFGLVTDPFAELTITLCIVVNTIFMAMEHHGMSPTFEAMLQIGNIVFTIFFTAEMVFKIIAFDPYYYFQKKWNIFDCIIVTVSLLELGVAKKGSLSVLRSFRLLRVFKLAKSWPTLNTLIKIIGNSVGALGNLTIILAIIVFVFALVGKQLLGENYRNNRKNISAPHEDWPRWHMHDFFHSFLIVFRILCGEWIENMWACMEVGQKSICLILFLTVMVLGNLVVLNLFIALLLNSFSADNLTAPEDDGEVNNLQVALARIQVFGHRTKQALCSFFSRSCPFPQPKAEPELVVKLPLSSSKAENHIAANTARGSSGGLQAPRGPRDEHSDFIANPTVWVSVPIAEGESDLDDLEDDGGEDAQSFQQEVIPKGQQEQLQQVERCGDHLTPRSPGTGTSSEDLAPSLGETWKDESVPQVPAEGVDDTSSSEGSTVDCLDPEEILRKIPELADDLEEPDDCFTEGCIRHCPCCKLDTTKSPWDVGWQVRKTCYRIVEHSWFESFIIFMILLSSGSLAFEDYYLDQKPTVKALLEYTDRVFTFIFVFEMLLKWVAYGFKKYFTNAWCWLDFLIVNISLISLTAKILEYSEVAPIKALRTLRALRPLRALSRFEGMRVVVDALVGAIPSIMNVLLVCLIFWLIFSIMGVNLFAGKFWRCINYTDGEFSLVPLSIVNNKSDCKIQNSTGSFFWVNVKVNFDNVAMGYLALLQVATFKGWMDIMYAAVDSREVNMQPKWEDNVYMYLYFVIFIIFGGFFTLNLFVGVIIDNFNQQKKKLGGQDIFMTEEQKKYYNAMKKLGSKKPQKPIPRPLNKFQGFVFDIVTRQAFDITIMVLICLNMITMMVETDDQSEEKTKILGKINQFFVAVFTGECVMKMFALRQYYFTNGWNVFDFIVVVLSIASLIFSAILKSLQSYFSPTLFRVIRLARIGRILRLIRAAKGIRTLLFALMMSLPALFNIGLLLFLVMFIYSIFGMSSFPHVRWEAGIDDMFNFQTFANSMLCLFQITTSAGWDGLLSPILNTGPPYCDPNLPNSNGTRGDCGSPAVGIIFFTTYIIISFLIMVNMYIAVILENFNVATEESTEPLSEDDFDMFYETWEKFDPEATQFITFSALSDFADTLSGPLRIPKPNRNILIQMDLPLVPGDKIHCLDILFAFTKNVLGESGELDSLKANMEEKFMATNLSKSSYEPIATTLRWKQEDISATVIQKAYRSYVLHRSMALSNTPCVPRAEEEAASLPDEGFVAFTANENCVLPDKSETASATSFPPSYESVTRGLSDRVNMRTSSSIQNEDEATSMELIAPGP
In general, IC50 refers to the concentration that gives 50% inhibition. Low values mean inhibition by little substance, high ones a need for much substance. As for `O=C1CN(C(=O)NC(c2ccc(Cl)c(C(F)(F)F)n2)C2CCC(C(F)(F)F)CC2)CCN1` (single isomer, unassigned) [Example 45B], the midpoint of inhibition, the IC50, lay at 5.27 nM.

In turn, `C[C@@H]1C(=O)NCCN1C(=O)NC(c1ccc(OC(F)(F)F)cc1F)[C@H]1C[C@H](C(F)(F)F)C1` (single isomer, unassigned) [Example 50A, ((2R)-N-((R or S)-(2-fluoro-4-(trifluoro-methoxy)phenyl)(trans-3-(trifluoromethyl)-cyclobutyl)methyl)-2-methyl-3-oxopiperazine-1-carboxamide] yielded a 50% inhibitory concentration (IC50) of 389 nM.

The compound `C[C@@H]1C(=O)NCCN1C(=O)NC(c1ccc(F)c(Cl)c1F)[C@H]1C[C@H](C(F)F)C1` (single isomer, unassigned) [Example 29A] registered a 50% inhibitory concentration (IC50) of 8.91 nM.

Turning to `C[C@@H]1C(=O)NCCN1C(=O)NC(c1ccc(F)c(F)c1)[C@H]1CC[C@H](C(F)(F)F)CC1` (single isomer, unassigned) [Example 8A, (2R)-N-((R or S)-(3,4-difluoro-phenyl)(trans-4-(trifluoromethyl)cyclo-hexyl)methyl)-2-methyl-3-oxo-piperazine-1-carboxamide], the IC50 was found to be 244 nM.

Regarding `COC1CC(C(NC(=O)N2CCNC(=O)[C@H]2C)c2ccc(F)c(Cl)c2F)C1` (single isomer, unassigned) [Example 40A, (2R)-N-((R or S)-(3-chloro-2,4-difluoro-phenyl)(trans-3-methoxy-cyclobutyl)methyl)-2-methyl-3-oxopiperazine-1-carboxamide], the concentration for half-maximal inhibition (IC50) was 11700 nM.

`C[C@@H]1C(=O)NCCN1C(=O)NC(c1ccc(F)c(Cl)c1F)C1CC(OC(F)F)C1` (single isomer, unassigned) [Example 39C, (2R)-N-((S or R)-(3-chloro-2,4-difluoro-phenyl)(cis-3-(difluoro-methoxy)cyclobutyl)-methyl)-2-methyl-3-oxopiperazine-1-carboxamide] yielded a 50% inhibitory concentration (IC50) of 48.5 nM.

With `C[C@@H]1C(=O)NCCN1C(=O)NC(c1ccc(F)c(Cl)c1F)C1CC(C2CC2)C1` (single isomer, unassigned) [Example 21A, (2R)-N-((R or S)-(3-chloro-2,4-difluoro-phenyl)(trans or cis-3-cyclopropylcyclobutyl)methyl)-2-methyl-3-oxopiperazine-1-carboxamide], half-maximal inhibition (IC50) required 1.08 nM.

`O=C1CN(C(=O)N[C@H](c2ccc(F)c(Cl)c2)C2CCC(C(F)(F)F)CC2)CCN1` (single isomer, unassigned) [Example 1A] returned an IC50 of 3.5 nM.

The compound `C[C@@H]1C(=O)NCCN1C(=O)NC(c1ccc(F)c(Cl)c1F)[C@H]1C[C@H](C(F)F)C1` (single isomer, unassigned) [Example 29B] displayed a half-maximal inhibitory concentration (IC50) of 66.5 nM.

Consider `O=C1NCCN(C(=O)N[C@H](c2ccc(F)c(Cl)c2F)[C@H]2C[C@H](C(F)(F)F)C2)C1C1CC1` (single isomer, unassigned) [Example 27B, (S or R)—N—((S)-(3-chloro-2,4-difluorophenyl)(trans-3-(trifluoromethyl)cyclobutyl)methyl)-2-cyclopropyl-3-oxopiperazine-1-carboxamide], for which inhibition was half-maximal at 107 nM (IC50).

`C[C@@H]1C(=O)NCCN1C(=O)NC(c1ccc(F)c(Cl)c1F)C1CC12CC2` (single isomer, unassigned) [Example 41A, (2R)-N-((R or S)-(3-chloro-2,4-difluoro-phenyl)((R or S)-spiro[2.2]pentan-1-yl)methyl)-2-methyl-3-oxopiperazine-1-carboxamide] displayed an IC50 of 31.6 nM.

`C[C@@H]1C(=O)NCCN1C(=O)NC(c1ccc(F)c(Cl)c1F)C1CC(C2CC2)C1` (single isomer, unassigned) [Example 21D, (2R)-N-((S or R)-(3-chloro-2,4-difluoro-phenyl)(cis or trans-3-cyclopropyl-cyclobutyl)-methyl)-2-methyl-3-oxopiperazine-1-carboxamide]: it took 128 nM to reach half-maximal inhibition (IC50).

`C[C@@H]1C(=O)NCCN1C(=O)NC(c1ccc(F)c(Cl)c1F)[C@H]1CC[C@H](C(F)(F)F)CC1` (single isomer, unassigned) [Example 9B, (2R)-N-((S or R)-(3-chloro-2,4-difluoro-phenyl)(trans-4-(trifluoromethyl)cyclo-hexyl)methyl)-2-methyl-3-oxo-piperazine-1-carboxamide]: the IC50 is 0.8 nM.

For the compound `C[C@@H]1C(=O)NCCN1C(=O)NC(c1ccc(Cl)c(C(F)(F)F)n1)C1CC(C(F)(F)F)C1` (single isomer, unassigned) [Example 47B, (2R)—N—((R or S)-(5-chloro-6-(trifluoromethyl)pyridin-2-yl)(trans-3-(trifluoromethyl)cyclobutyl)methyl)-2-methyl-3-oxopiperazine-1-carboxamide], half-maximal inhibition (IC50) was put at 61.8 nM.

In turn, `C[C@@H]1C(=O)NCCN1C(=O)NC(c1ccc(F)c(Cl)c1F)C1CC12CC2` (single isomer, unassigned) [Example 41C, (2R)-N-((R or S)-(3-chloro-2,4-difluoro-phenyl)(S or R)-spiro[2.2]pentan-1-yl)methyl)-2-methyl-3-oxopiperazine-1-carboxamide] displayed an IC50 of 143 nM.

Regarding `C[C@@H]1C(=O)NCCN1C(=O)NC(c1ccc(F)c(Cl)c1)C1CC(C(F)(F)F)C1` (single isomer, unassigned) [Example 43C, (2R)-N-((S or R)-(3-chloro-4-fluorophenyl)-(trans-3-(trifluoro-methyl)-cyclobutyl)-methyl)-2-methyl-3-oxopiperazine-1-carboxamide], the half-maximal inhibitory concentration (IC50) was determined as 3.2 nM.

On to `C[C@@H]1C(=O)NCCN1C(=O)NC(c1ccc(F)c(Cl)c1)C1CCC2(CC1)CC2(F)F` (single isomer, unassigned) [Example 19A], for which half-maximal inhibition (IC50) was put at 5.75 nM.

`C[C@@H]1C(=O)NCCN1C(=O)NC(c1ccc(F)c(Cl)c1F)C1CC2(CC2)C1` (single isomer, unassigned) [Example 28B, (2R)—N—((S or R)-(3-chloro-2,4-difluorophenyl)(spiro[2.3]hexan-5-yl)methyl)-2-methyl-3-oxopiperazine-1-carboxamide] gave an IC50 of 191 nM.

`C[C@@H]1C(=O)NCCN1C(=O)NC(c1ccc(F)c(Cl)c1F)C1CCC(C(F)(F)F)C1` (single isomer, unassigned) [Example 58B, (2R)—N—((R or S)-(3-chloro-2,4-difluorophenyl)(cis-3-(trifluoromethyl)cyclopentyl)methyl)-2-methyl-3-oxopiperazine-1-carboxamide]: the IC50 stood at 5.65 nM.

On to `C[C@@H]1C(=O)NCCN1C(=O)NC(c1ccc(OC(F)(F)F)c(F)c1)[C@H]1C[C@H](C(F)(F)F)C1` (single isomer, unassigned) [Example 49B], for which it took 84.6 nM to reach half-maximal inhibition (IC50).

`[2H]C1([2H])NC(=O)C(C)N(C(=O)N[C@H](c2ccc(F)c(Cl)c2F)[C@H]2C[C@H](C(F)(F)F)C2)C1([2H])[2H]` (single isomer, unassigned) [Example 59B, (S or R)—N—((S)-(3-chloro-2,4-difluorophenyl)((trans)-3-(trifluoromethyl)cyclobutyl)methyl)-2-methyl-3-oxopiperazine-5,5,6,6-d4-1-carboxamide] showed an IC50 of 44 nM.
